This note sets out measurements from paper PMC4992025, “A Colorimetric Microplate Assay for DNA-Binding Activity of His-Tagged MutS Protein” (Molecular Biotechnology, 2016).

Structures are written as SMILES.

For this experiment, the target named is T1, TthMutS (Thermus thermophilus, UniProt Q56239).
T1 construct: gene mutS; N-terminal His-tag translational fusion, tag kept; expressed in E. coli BL21(DE3)pLysS; IMAC purified; immobilized on nickel plate; 92 kDa monomer (stated for MutS generally)
T1 sequence (Q56239 2-819): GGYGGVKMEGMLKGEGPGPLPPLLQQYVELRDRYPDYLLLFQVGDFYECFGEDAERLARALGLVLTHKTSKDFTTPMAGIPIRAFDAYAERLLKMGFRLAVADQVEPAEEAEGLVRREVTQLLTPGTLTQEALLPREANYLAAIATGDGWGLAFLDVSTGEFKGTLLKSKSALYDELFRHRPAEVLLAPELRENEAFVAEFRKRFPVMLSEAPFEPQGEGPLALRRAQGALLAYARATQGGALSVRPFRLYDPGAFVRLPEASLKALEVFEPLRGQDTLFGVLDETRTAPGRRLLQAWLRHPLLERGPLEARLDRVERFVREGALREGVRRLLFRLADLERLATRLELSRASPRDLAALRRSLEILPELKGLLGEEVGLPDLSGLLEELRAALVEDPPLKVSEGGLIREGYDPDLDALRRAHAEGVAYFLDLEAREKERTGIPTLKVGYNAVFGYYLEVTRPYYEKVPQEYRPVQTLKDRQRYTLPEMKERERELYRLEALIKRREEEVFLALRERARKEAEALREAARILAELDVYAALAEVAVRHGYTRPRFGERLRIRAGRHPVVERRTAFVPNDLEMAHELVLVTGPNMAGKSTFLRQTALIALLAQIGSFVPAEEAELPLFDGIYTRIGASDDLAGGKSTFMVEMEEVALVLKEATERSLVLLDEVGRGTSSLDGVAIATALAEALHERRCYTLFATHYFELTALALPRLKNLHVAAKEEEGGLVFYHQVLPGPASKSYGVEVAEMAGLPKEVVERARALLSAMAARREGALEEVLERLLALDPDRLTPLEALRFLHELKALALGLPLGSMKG
The experiment can be described thus: colorimetric nickel-plate DNA mismatch binding assay (A620). In kind it is biochemical. As to conditions: 1 mM ADP; 300 mM salt (PBSx2); room temperature; immobilized his-tagged protein; modulator of TG49 mismatch versus TA49 DNA binding.

For the compound `Nc1ncnc2c1ncn2[C@@H]1O[C@H](COP(=O)(O)OP(=O)(O)O)[C@@H](O)[C@H]1O` [ADP], the “colorimetric nickel-plate DNA mismatch binding assay (A620)” value is “In the presence of ADP, the specificity of MutS from T. thermophilus strongly increased”.
